Patent US6498183B1, “Substituted indole sulfonamides as anitviral agents” (Bayer Aktiengesellschaft, priority 1999, dated 2002)

Experiments:
[1] = tested on: human cytomegalovirus (HCMV); test: anti-HCMV screening test (cytopathogenic effect) in HELF cell cultures; type: cell-based; conditions: Human betaherpesvirus 5; HCMV-infected HELF cells, 96-well plates; concentration giving 50% inhibition of virus activity (CPE, Neutral Red)
Experimental: The anti-HCMV action was determined in a screening test system in 96-well microtitre plates with the assistance of human embryonic lung fibroblasts (HELF) cell cultures. The affect of these substances on the extent of the cytopathogenic effect was determined by comparison with the reference substance ganciclovir (Cymevene^R sodium), a clinically approved anti-HCMV chemotherapeutic agent (EC50, corresponding to the effective concentration at which a 50% inhibition of virus activity is achieved).
The substances dissolved (50 mM) in DMSO (dimethyl sulphoxide) are investigated on microtitre plates (96-well) in duplicate determinations (4 substances/plate). Toxic and cytostatic effects of the substances are also detected thereby (CC50, corresponding to the concentration at which half the cells are destroyed owing to administration of the substance). […]
After this time, the cell lawn in the virus controls free of substance, starting from 50-100 infectious centres, is completely destroyed by the cytopathogenic effect of the HCMV (100% CPE). After staining with Neutral Red and fixing with formalin/methanol, the plates are evaluated using a projection microscope (plaque viewer).

[2] = toxic and cytostatic effects on HELF cells in the anti-HCMV screening test; type: cell-based; conditions: human, concentration at which half the cells are destroyed
Experimental: The substances dissolved (50 mM) in DMSO (dimethyl sulphoxide) are investigated on microtitre plates (96-well) in duplicate determinations (4 substances/plate). Toxic and cytostatic effects of the substances are also detected thereby (CC50, corresponding to the concentration at which half the cells are destroyed owing to administration of the substance). After the appropriate substance dilutions (1:2) on the microtitre plate, a suspension of 50-100 HCMV-infected HELF cells and […] uninfected HELF cells in Eagle's MEM with 10% fetal calf serum are put in each well, and the plates are incubated at 37° C. in a CO2 incubator for several days. After this time, the cell lawn in the virus controls free of substance, starting from 50-100 infectious centres, is completely destroyed by the cytopathogenic effect of the HCMV (100% CPE). After staining with Neutral Red and fixing with formalin/methanol, the plates are evaluated using a projection microscope (plaque viewer).

| Structure (SMILES) | EC50 [1] | CC50 [2] |
| --- | --- | --- |
| CC(=O)n1ccc2cc(S(=O)(=O)Nc3ccc(C(=O)NC(C)(C)C)cc3)ccc21 [Example 2, 4-[N-Acetylindole-5-sulphonylamino]-N-(tert-butyl)benzamide] | 390 nM | 86 µM |
| CCn1ccc2cc(S(=O)(=O)Nc3cccc(NC(=O)C(C)(C)CF)c3)ccc21 [Example 1, N-[(N-Ethylindole)-5-sulphonyl]-N′-(3-fluoro-2,2-dimethylpropanoyl)-1,3-diamino-benzene] | 55 nM | 15.6 µM |
